# In patent US20230278972A1, “SUBSTITUTED HALOALKYL SULFONANILIDE HERBICIDES” (FMC Corporation, priority 2020, published 2023):
# Assays:
# Type in all cases: in vivo
# [1] = tested on: Foxtail, Giant (giant foxtail, Setaria faberi); test: Test A1 postemergence, Foxtail, Giant; settings: Postemergence
# Excerpt: (§1) Seeds of plant species selected from, blackgrass (Alopecurus myosuroides), corn (Zea mays), Foxtail, Giant (giant foxtail, Setaria faberi), goosegrass (Eleusine indica), kochia (Bassia scoparia), Oat, Wild (wild oat, Avena fatua), Pigweed, Palmer (palmer amaranth, palmer pigweed, Amaranthus palmeri), ragweed (common ragweed, Ambrosia artemisiifolia), Ryegrass, Italian (Italian ryegrass, Lolium multiflorum), soybean (Glycine max), and wheat (Triticum aestivum) were planted into a blend of loam soil and sand and treated preemergence with a directed soil spray using test chemicals formulated in a non-phytotoxic solvent mixture which included a surfactant. At the same time, plants selected from these crop and weed species and also galium (catchweed bedstraw, Galium aparine) and horseweed (Erigeron canadensis) were planted in pots containing the same blend of loam soil and sand and treated with postemergence applications of test chemicals formulated in the same manner. Plants ranged in height from 2 to 10 cm and were in the one- to two-leaf stage for the postemergence treatment. […] A dash (-) response means no test result.
# [2] = tested on: Pigweed, Palmer (palmer amaranth, palmer pigweed, Amaranthus palmeri); test: Test A1 postemergence, Pigweed, Palmer; settings: Postemergence
# Excerpt: as §1
# soybean (Glycine max) [3] = test: Test A1 postemergence, soybean; settings: Postemergence
# Excerpt: as §1
# [4] = tested on: Foxtail, Giant (giant foxtail, Setaria faberi); test: Test A1 preemergence, Foxtail, Giant
# Excerpt: as §1
# [5] = tested on: ragweed (common ragweed, Ambrosia artemisiifolia); test: Test A1 postemergence, ragweed; settings: Postemergence
# Excerpt: as §1
# [6] = tested on: Ryegrass, Italian (Italian ryegrass, Lolium multiflorum); test: Test A1 preemergence, Ryegrass, Italian
# Excerpt: as §1
# soybean (Glycine max) [7] = test: Test A1 preemergence, soybean
# Excerpt: as §1
# [8] = tested on: ragweed (common ragweed, Ambrosia artemisiifolia); test: Test A1 preemergence, ragweed
# Excerpt: as §1
# rice (Oryza sativa) = test: Test B1 flooded paddy test, rice; settings: 250 g ai/ha, Flood, applied to paddy water, 2-leaf stage, visually evaluated after 10 to 14 days
# Excerpt: (§2) A dash (-) response means no test result.
# [9] = tested on: Ryegrass, Italian (Italian ryegrass, Lolium multiflorum); test: Test A1 postemergence, Ryegrass, Italian; settings: Postemergence
# Excerpt: as §1
# corn (Zea mays) [10] = test: Test A1 preemergence, corn
# Excerpt: as §1
# [11] = tested on: ducksalad (Heteranthera limosa); test: Test B1 flooded paddy test, ducksalad; settings: 250 g ai/ha, Flood, applied to paddy water, 2-leaf stage, visually evaluated after 10 to 14 days
# Excerpt: as §2
# [12] = tested on: wheat (Triticum aestivum); test: Test A1 preemergence, wheat
# Excerpt: as §1
# [13] = tested on: wheat (Triticum aestivum); test: Test A1 postemergence, wheat; settings: Postemergence
# Excerpt: as §1
# kochia (Bassia scoparia) [14] = test: Test A1 postemergence, kochia; settings: Postemergence
# Excerpt: as §1
# [15] = tested on: galium (catchweed bedstraw, Galium aparine); test: Test A1 postemergence, galium; settings: Postemergence
# Excerpt: as §1
# [16] = tested on: blackgrass (Alopecurus myosuroides); test: Test A1 preemergence, blackgrass
# Excerpt: as §1
# [17] = tested on: goosegrass (Eleusine indica); test: Test A1 preemergence, goosegrass
# Excerpt: as §1
# [18] = tested on: goosegrass (Eleusine indica); test: Test A1 postemergence, goosegrass; settings: Postemergence
# Excerpt: as §1
# [19] = tested on: blackgrass (Alopecurus myosuroides); test: Test A1 postemergence, blackgrass; settings: Postemergence, 0 to 100 scale (0 no effect, 100 complete control)
# Excerpt: as §1
# [20] = tested on: Oat, Wild (wild oat, Avena fatua); test: Test A1 preemergence, Oat, Wild
# Excerpt: as §1
# [21] = tested on: Oat, Wild (wild oat, Avena fatua); test: Test A1 postemergence, Oat, Wild; settings: Postemergence
# Excerpt: as §1
# kochia (Bassia scoparia) [22] = test: Test A1 preemergence, kochia; settings: 125 g ai/ha, 0 to 100 scale, 0 no effect, 100 complete control
# Excerpt: as §1
# [23] = tested on: Pigweed, Palmer (palmer amaranth, palmer pigweed, Amaranthus palmeri); test: Test A1 preemergence, Pigweed, Palmer
# Excerpt: as §1
# corn (Zea mays) [24] = test: Test A1 postemergence, corn; settings: Postemergence
# Excerpt: as §1
# [25] = tested on: barnyardgrass (Echinochloa crus-galli); test: Test B1 flooded paddy test, barnyardgrass; settings: 250 g ai/ha, Flood, applied to paddy water, 2-leaf stage, visually evaluated after 10 to 14 days
# Excerpt: as §2
# [26] = 31 g ai/ha, 0 to 100 scale (0 no effect, 100 complete control), 10 days
# [27] = 31 g ai/ha, 0 to 100 scale (0 no effect, 100 complete control)
# [28] = 125 g ai/ha, 0 to 100 scale, 0 no effect, 100 complete control
smiles,measurement,setting,value
Cc1cc(C)c(C2=NOC3(C)CCCC23)cc1NS(=O)(=O)C(F)(F)F (stereo not drawn) [Compound 340],"Plant response rating, Foxtail, Giant",[1]; [26],10
same,"Plant response rating, Foxtail, Giant","[1]; 125 g ai/ha, 0 to 100 scale",50
same,"Plant response rating, Pigweed, Palmer",[2]; [26],0
same,"Plant response rating, Pigweed, Palmer","[2]; 125 g ai/ha, 0 to 100 scale",30
same,"Plant response rating, Soybean",soybean (Glycine max) [3]; [26],50
same,"Plant response rating, Soybean","soybean (Glycine max) [3]; 125 g ai/ha, 0 to 100 scale",60
same,"Plant response rating, Foxtail, Giant",[4]; [27],50
same,"Plant response rating, Foxtail, Giant",[4]; [28],100
same,"Plant response rating, Ragweed",[5]; [26],70
same,"Plant response rating, Ragweed","[5]; 125 g ai/ha, 0 to 100 scale",80
same,"Plant response rating, Ryegrass, Italian",[6]; [27],50
same,"Plant response rating, Ryegrass, Italian",[6]; [28],100
same,"Plant response rating, Soybean",soybean (Glycine max) [7]; [27],40
same,"Plant response rating, Soybean",soybean (Glycine max) [7]; [28],90
same,"Plant response rating, Ragweed",[8]; [27],10
same,"Plant response rating, Ragweed",[8]; [28],90
same,"Plant response rating, Rice (0 to 100 scale, 0 is no effect, 100 is complete control)",rice (Oryza sativa),10
same,"Plant response rating, Ryegrass, Italian",[9]; [26],0
same,"Plant response rating, Ryegrass, Italian","[9]; 125 g ai/ha, 0 to 100 scale",20
same,"Plant response rating, Corn",corn (Zea mays) [10]; [27],0
same,"Plant response rating, Corn",corn (Zea mays) [10]; [28],90
same,"Plant response rating, Ducksalad (0 to 100 scale, 0 is no effect, 100 is complete control)",[11],45
same,"Plant response rating, Wheat",[12]; [27],20
same,"Plant response rating, Wheat",[12]; [28],90
same,"Plant response rating, Wheat",[13]; [26],50
same,"Plant response rating, Wheat","[13]; 125 g ai/ha, 0 to 100 scale",70
same,"Plant response rating, Kochia",kochia (Bassia scoparia) [14]; [26],20
same,"Plant response rating, Kochia","kochia (Bassia scoparia) [14]; 125 g ai/ha, 0 to 100 scale",50
same,"Plant response rating, Galium",[15]; [26],50
same,"Plant response rating, Galium","[15]; 125 g ai/ha, 0 to 100 scale",80
same,"Plant response rating, Blackgrass",[16]; [27],60
same,"Plant response rating, Blackgrass",[16]; [28],90
same,"Plant response rating, Goosegrass",[17]; [27],100
same,"Plant response rating, Goosegrass",[17]; [28],100
same,"Plant response rating, Goosegrass",[18]; [26],60
same,"Plant response rating, Goosegrass","[18]; 125 g ai/ha, 0 to 100 scale",90
same,"Plant response rating, Blackgrass","[19]; 31 g ai/ha, 10 days",0
same,"Plant response rating, Blackgrass",[19]; 125 g ai/ha,20
same,"Plant response rating, Oat, Wild",[20]; [27],0
same,"Plant response rating, Oat, Wild",[20]; [28],90
same,"Plant response rating, Oat, Wild",[21]; [26],0
same,"Plant response rating, Oat, Wild","[21]; 125 g ai/ha, 0 to 100 scale",20
same,"Plant response rating, Kochia",kochia (Bassia scoparia) [22],60
same,"Plant response rating, Pigweed, Palmer",[23]; [27],60
same,"Plant response rating, Pigweed, Palmer",[23]; [28],100
same,"Plant response rating, Corn",corn (Zea mays) [24]; [26],20
same,"Plant response rating, Corn","corn (Zea mays) [24]; 125 g ai/ha, 0 to 100 scale",50
same,"Plant response rating, Barnyardgrass (0 to 100 scale, 0 is no effect, 100 is complete control)",[25],85
